According to US20100234238A1, “METHOD FOR PROFILING KINASE INHIBITORS” (Janssen Pharmaceutica N V, priority 2006, published 2010):

Columns and labels:
[1] = test system: tyrosine kinase activity in cell line lysates; assay: Peptide array profiling of 9 cell line lysates in the presence of MTKI or Tarceva; format: biochemical; conditions: 5 μM
Procedure: To test whether other EGFR inhibitors, related to MTKI, such as Tarceva (erlotinib; OSI pharmaceuticals), are also amenable to this response prediction methodology, 9 cell lines were profiled in the presence of MTKI, or Tarceva (5 μM in both cases). […] The value of the previously derived MTKI prediction peptides is illustrated in Tables 6A to C. Based on these peptides also response to Tarceva can be predicted with identical accuracy as for MTKI (and with the same false predictions, in casu H2009 and MOLT4).

[2] = test system: 27 cell lines, representing diverse cancer cell types; assay: Inhibition of proliferation of cell lines in vitro (response status); format: cell-based; conditions: response to MTKI
Procedure: (§1) It was tested whether the Pamchip peptide arrays are a useful tool to predict the response of a cell line to the multi-targeted kinase inhibitor, MTKI. MTKI inhibits the proliferation of a range of cell lines in vitro with widely varying IC50's. The lysates prepared from these 27 cell lines, representing diverse cancer cell types, were profiled on the peptide arrays in the absence or presence of 5 μM MTKI, in 6 replicates for each condition. In this panel, 13 cell lines were defined as responder cell lines (IC50<3 μM; cell lines are ordered according to increasing IC50 in Example 1, whereas 14 cell lines are classified as ‘non-responder’ cell lines (IC50>10 μM). Intermediary cell lines and cell lines with highly variable IC50 measurements were omitted from the analysis. The experiment included the highly responsive H3255 lung cancer cell line, which overexpresses mutant EGFR L858R. This mutant variant is highly responsive to MTKI, which is an ATP-competitive compound that binds to the active conformation of EGFR (similar to erlotinib and gefitinib). Accordingly, the most profound changes induced by MTKI in lysate kinase activity can be observed for this highly responsive cell line. To identify those peptides for which the inhibition of phosphorylation by MTKI correlates well with the response status of the cell line from which the lysate was prepared, a statistical mixed-model was set up to identify those peptides that are most likely to change after MTKI treatment in responder cell lysates compared to non-responder lysates, taken into account the inter-replicate variability (see the material and methods section for a more detailed description of the statistical test). […] To illustrate that the inhibition of the phosphorylation of these peptides in a given lysate does indeed correlate with the response of the corresponding cell line to MTKI, the following cut-off was chosen to classify responders and non-responders: minimally 4 peptides out of the 16 peptide list should be inhibited with a ratio of less than 0.8 (more than 20% inhibition) to classify as a responder. Applying this rule to all 27 cell lines indicates an overall classification accuracy of 82% (with 78% sensitivity, and 86% specificity). […] Note that the use of these […] peptides as a classification tool can be optimized according to the required sensitivity and specificity.

[3] = test system: 27 cell lines, representing diverse cancer cell types; assay: as above; format: cell-based; parameters: key: R = Responder to MTKI; NR = Non-Responder to MTKI; conditions: MTKI
Procedure: as §1

IC50 ([2]; BT474OD cell line): < 3 µM | IC50 ([2]; COLO 699, Colo699 cell line): < 3 µM | IC50 ([2]; HEK239, HEK239 cell line): > 10 µM | IC50 ([2]; HT1373 cell line): > 10 µM | IC50 ([2]; Homo sapiens, A-431, A431 cell line): < 3 µM | IC50 ([2]; Homo sapiens, DU-145, DU145 cell line): < 3 µM | IC50 ([2]; Homo sapiens, GTL 16, GTL16 cell line): > 10 µM | IC50 ([2]; Homo sapiens, MCF7, MCF7 cell line): > 10 µM | IC50 ([2]; Homo sapiens, MDA-MB-435S, MDAMB435s cell line): > 10 µM | IC50 ([2]; Homo sapiens, MKN-45, MKN45 cell line): > 10 µM | IC50 ([2]; Homo sapiens, MOLT-4, MOLT4 cell line): > 10 µM | IC50 ([2]; Homo sapiens, NCI-H23, H23 cell line): > 10 µM | IC50 ([2]; Homo sapiens, NCI-H1650, H1650 cell line): > 10 µM | IC50 ([2]; Homo sapiens, NCI-H2009, H2009 cell line): < 3 µM | IC50 ([2]; Homo sapiens, NCI-H2122, H2122 cell line): < 3 µM | IC50 ([2]; Homo sapiens, NCI-H3255, H3255 cell line): < 3 µM | IC50 ([2]; Homo sapiens, NCI-N87, NCI-N87 cell line): < 3 µM | IC50 ([2]; Homo sapiens, SH-SY5Y, SHSY5Y cell line): > 10 µM | IC50 ([2]; Homo sapiens, SK-BR-3, SKBR3 cell line): < 3 µM | IC50 ([2]; Homo sapiens, SNU-5, SNU5 cell line): > 10 µM | IC50 ([2]; Homo sapiens, U-118-MG, U118MG cell line): > 10 µM | IC50 ([2]; MDA231PAR cell line): > 10 µM | IC50 ([2]; NCI-H322, H322 cell line): < 3 µM | IC50 ([2]; RSJSA1 cell line): > 10 µM | IC50 ([2]; SNU-484, SNU484 cell line): < 3 µM | IC50 ([2]; SUM149, SUM149 cell line): < 3 µM | IC50 ([2]; SUM159, SUM159 cell line): < 3 µM
Compound: COc1cc2ncnc3c2cc1OCCCCCN(C)Cc1ccc(Br)cc1N3 [MTKI, 4,6-ethanediylidenepyrimido[4,5-b][6,1,12]benzoxadiazacyclopentadecine, 17-bromo-8,9,10,11,12,13,14,19-octahydro-20-methoxy-13-methyl-]
potency in lysate inhibition profile compared to Tarceva ([1]; H3255 lysate): slightly more potent | potency in lysate inhibition profile compared to Tarceva ([1]; N87 lysate): more potent | response status ([3]; A431 cell line): R | response status ([3]; DU145 cell line): R | response status ([3]; H2009 cell line): R | response status ([3]; H3255 cell line): R | response status ([3]; N87 cell line): R | response status ([3]; SKBR3 cell line): R | response status ([3]; SUM149 cell line): R
